Series [1] relates to Escherichia coli expressing NDM-1 (CLB30016). The format is cell-based. The settings on record: with imipenem 1 μg/ml; 95% inhibition of bacterial growth. An outline of the steps:
(§1)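 Clinical MBL-producing strains were grown overnight at 35 °C on blood agar, suspended in saline, diluted 1:100 into 1.1× CAMHB and exposed to test compound with imipenem at 1 μg/ml. After 22–24 h at 35 °C, absorbance gave MITC95: lowest compound concentration inhibiting 95% of growth.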

For series [2], the system named is Klebsiella pneumoniae expressing VIM-1 (IHMA599644). The format is cell-based. The settings on record: with imipenem 1 μg/ml; 95% inhibition of bacterial growth. A digest of the protocol: as §1
Series [3] relates to Serratia marcescens expressing IMP-1 (CL5741). The series is classed as cell-based. As to conditions: with imipenem 1 μg/ml; 95% inhibition of bacterial growth. An outline of the steps:
as §1

The next series addresses NDM-1 (Klebsiella pneumoniae, UniProt C7C422). Kind of series: biochemical. The series is classed as biochemical. As to conditions: CCF2-FA fluorescence assay, 2 hours at 25° C. An outline of the steps:
(§2)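 Enzyme (NDM-1 1 pM, IMP-1 2 pM, VIM-1 30 pM final) and 1.25 μM CCF2-FA incubated with inhibitor (20 to 0.00063 μM) for 2 h at 25° C in 100 mM KH2PO4 pH 7, 0.005% Tween-20, 10 μM ZnSO4. Fluorescence read at ex 405/em 460 nm; IC50 by 4-parameter fit.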

Series [4] has as its system P. aeruginosa MB9798 (efflux+, IMP-1 plasmid). As to conditions: for MB9798 MITC95 P. aeruginosa uM Efflux WT: efflux + (MB9798) strain, imipenem at 2 μg/mL, in the presence of a class A, C, D serine β-lactamase inhibitor closely related to relebactam; for Efflux ratio: fold difference between efflux+ (MB9798) and efflux− (MB9799) strains. An outline of the steps:
(§3)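 Isogenic P. aeruginosa PAO1 strains (efflux+ and multiple-efflux-pump-disrupted) carrying plasmid IMP-1, with inducible AmpC, tested by broth microdilution. Imipenem and/or ceftazidime fixed, usually at CLSI breakpoint, plus fixed class A/C β-lactamase inhibitor; titrated MBL inhibitor concentration restoring susceptibility recorded and compared between strains as efflux fold difference.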

The next series deals with VIM-1 (Pseudomonas aeruginosa (strain ATCC 15692 / DSM 22644 / CIP 104116 / JCM 14847 / LMG 12228 / 1C / PRS 101 / PAO1), UniProt A0A0F7KYQ8). The experiment in a line: biochemical. As to conditions: CCF2-FA fluorescence assay, 2 hours at 25° C.; read-out: VIM1 IC50. A digest of the protocol: as §2
The next series addresses IMP-1 (Serratia marcescens, UniProt P52699). The experiment in a line: biochemical. The settings on record: CCF2-FA fluorescence assay, 2 hours at 25° C.; read-out: IMP1 IC50. A digest of the protocol:
as §2

The next series concerns the target VIM-2 (Escherichia coli, UniProt Q5U7L7). Kind of series: biochemical. As to conditions: CCF2-FA fluorescence assay; read-out: VIM2 IC50.
The subject of series [5] is P. aeruginosa MB9799 (efflux-, IMP-1 plasmid). The format is cell-based, Pseudomonas aeruginosa. The settings on record: efflux − (MB9799) strain; imipenem at 2 μg/mL; in the presence of a class A, C, D serine β-lactamase inhibitor closely related to relebactam. A digest of the protocol: as §3

Sequence of NDM-1 (C7C422 whole entry, looked up, species assumed): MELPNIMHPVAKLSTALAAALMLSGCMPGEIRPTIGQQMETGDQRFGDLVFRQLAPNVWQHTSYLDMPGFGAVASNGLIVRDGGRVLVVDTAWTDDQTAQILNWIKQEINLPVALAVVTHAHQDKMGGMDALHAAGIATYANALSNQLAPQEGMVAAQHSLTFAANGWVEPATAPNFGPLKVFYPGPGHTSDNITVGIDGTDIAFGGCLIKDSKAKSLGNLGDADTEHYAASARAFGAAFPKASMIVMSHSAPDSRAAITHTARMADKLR
Sequence of IMP-1 (P52699 whole entry, looked up, species assumed): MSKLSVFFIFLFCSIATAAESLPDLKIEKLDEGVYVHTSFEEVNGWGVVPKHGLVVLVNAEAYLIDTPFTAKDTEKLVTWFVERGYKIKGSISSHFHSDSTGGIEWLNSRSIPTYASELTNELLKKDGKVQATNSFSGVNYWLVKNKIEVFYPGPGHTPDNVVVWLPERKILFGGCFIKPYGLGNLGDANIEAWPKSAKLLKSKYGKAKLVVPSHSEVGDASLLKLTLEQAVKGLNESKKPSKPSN

Turning to `NC[C@@H](O)CNS(=O)(=O)c1ccc(N2CC[C@H](CN)[C@H](O)C2)c(-c2nn[nH]n2)c1S(N)(=O)=O` [Example 9, N^1—((R)-3-amino-2-hydroxypropyl)-4-(cis-4-(aminomethyl)-3-hydroxypiperidin-1-yl)-3-(2H-tetrazol-5-yl)benzene-1,2-disulfonamide], the “CLB30016 E. coli MITC95 NDM” value in series [1] is 0.39 µM. The “IHMA599644 K. pneumoniae MITC95 VIM” value in series [2] came out at 1.56 µM. Besides, in series [3], the “CL5741 S. marcescens MITC95 IMP” value is 0.78 µM. Moreover, the IC50 (as a rule, the concentration at which inhibition is half-maximal) on NDM-1 turned out to be 3.46 nM; at VIM-1, 0.26 nM; on IMP-1 it was 15.5 nM; on VIM-2 it was 6.41 nM. For the same compound, the “MB9798 MITC95 P. aeruginosa uM Efflux WT” value in series [4] worked out at 1.56 µM. In series [4], the Efflux ratio is on record as 2.00. Further, the “MB9799 MITC95 P. aeruginosa uM Efflux Mutant” value in series [5] was 0.78 µM.

Take `NC[C@@H](O)CNS(=O)(=O)c1ccc(N2CCC(CCn3cccn3)CC2)c(-c2nn[nH]n2)c1S(N)(=O)=O` [Example 27, (R)-4-(4-(2-(1H-pyrazol-1-yl)ethyl)piperidin-1-yl)-N^1-(3-amino-2-hydroxypropyl)-3-(2H-tetrazol-5-yl)benzene-1,2-disulfonamide]: the “CLB30016 E. coli MITC95 NDM” value in series [1] stood at 3.13 µM. Besides, the “IHMA599644 K. pneumoniae MITC95 VIM” value in series [2] is 6.25 µM. Further, in series [3], the “CL5741 S. marcescens MITC95 IMP” value came to 3.13 µM. Besides, the IC50 was 0.07 nM against NDM-1, 0.06 nM at VIM-1, 0.05 nM on IMP-1 and 0.18 nM at VIM-2. Moreover, in series [4], the “MB9798 MITC95 P. aeruginosa uM Efflux WT” value came to 25.00 µM. In addition, the Efflux ratio in series [4] came to 15.99. Besides, the “MB9799 MITC95 P. aeruginosa uM Efflux Mutant” value in series [5] turned out to be 1.56 µM.

Turning to `NS(=O)(=O)c1c(S(=O)(=O)N[C@@H]2CCNC2)ccc(N2CCOC(CCO)C2)c1-c1nnn[nH]1` (stereo partly drawn) [Example 105, 4-[2-(2-hydroxyethyl)morpholin-4-yl]-N1-[(3R)-pyrrolidin-3-yl]-3-(1H-tetrazol-5-yl)benzene-1,2-disulfonamide], in [1], the “CLB30016 E. coli MITC95 NDM” value is 6.25 µM. In series [2], the “IHMA599644 K. pneumoniae MITC95 VIM” value stood at 12.50 µM. For the same compound, the “CL5741 S. marcescens MITC95 IMP” value in series [3] came to 6.25 µM. Besides, the IC50 against NDM-1 was 0.25 nM; at VIM-1, 0.96 nM; on IMP-1, 1.16 nM; on VIM-2 it was 1.79 nM. The “MB9798 MITC95 P. aeruginosa uM Efflux WT” value in [4] was found to be 12.50 µM. In series [4], the Efflux ratio is recorded as 2.00. Moreover, in [5], the “MB9799 MITC95 P. aeruginosa uM Efflux Mutant” value turned out to be 6.25 µM.

For `NS(=O)(=O)c1c(S(=O)(=O)N[C@@H]2CCNC2)ccc(N2CCCCC2=O)c1-c1nn[nH]n1` [Example 154, (R)-4-(2-oxopiperidin-1-yl)-N1-(pyrrolidin-3-yl)-3-(2H-tetrazol-5-yl)benzene-1,2-disulfonamide], in series [1], the “CLB30016 E. coli MITC95 NDM” value came out at 1.56 µM. The “IHMA599644 K. pneumoniae MITC95 VIM” value in series [2] stood at 6.25 µM. In [3], the “CL5741 S. marcescens MITC95 IMP” value is 1.56 µM. Besides, the IC50 against NDM-1 was 0.35 nM; on VIM-1, 0.26 nM; on IMP-1, 8.46 nM; on VIM-2, 0.73 nM. In addition, the “MB9798 MITC95 P. aeruginosa uM Efflux WT” value in series [4] worked out at 3.13 µM. Also, in series [4], the Efflux ratio was determined as 2.00. Also, the “MB9799 MITC95 P. aeruginosa uM Efflux Mutant” value in series [5] is 1.56 µM.

On to `NS(=O)(=O)c1c(S(=O)(=O)N[C@@H]2CCNC2)ccc(N2CC[C@H](O)C2)c1-c1nnn[nH]1` [Example 97, 4-[(3S)-3-hydroxypyrrolidin-1-yl]-N1-[(3R)-pyrrolidin-3-yl]-3-(1H-tetrazol-5-yl)benzene-1,2-disulfonamide], for which the “CLB30016 E. coli MITC95 NDM” value in series [1] is 3.13 µM. Moreover, the “IHMA599644 K. pneumoniae MITC95 VIM” value in series [2] came out at 12.50 µM. Besides, the “CL5741 S. marcescens MITC95 IMP” value in series [3] came out at 6.25 µM. The IC50 turned out to be 6.21 nM against NDM-1, 2.49 nM on VIM-1, 11.6 nM on IMP-1 and 4.43 nM on VIM-2. Further, the “MB9798 MITC95 P. aeruginosa uM Efflux WT” value in series [4] is 6.25 µM. Also, the Efflux ratio in series [4] came to 2.00. In addition, the “MB9799 MITC95 P. aeruginosa uM Efflux Mutant” value in series [5] turned out to be 3.13 µM.

Source of the values: US11207312B2, “Metallo-beta-lactamase inhibitors and methods of use thereof” (priority 2017, dated 2021).
